Laboratory results as given in ChEMBL document CHEMBL1126972, “Synthesis of 2-imidazolidinylidenepropanedinitrile derivatives as stimulators of gastrointestinal motility” (J Med Chem, 1993).
Activity calls are given as the source filed them. The calls are words filed in the database; no cut-off is given here.

Species: Cavia porcellus
Experiment: In vitro gastrointestinal motility enhancing activity was determined by potentiating action on electrically evoked contraction of the isolated guinea pig ileum; the maximum contraction was not achieved to 30%
Assay type: functional
Settings: not given

With `CN(C)C(=O)Oc1cccc([N+](C)(C)C)c1` as the molecule, how does the EC30 read?
The EC30 was “inactive”.

Species: Cavia porcellus
Experiment: In vitro gastrointestinal motility enhancing activity was determined by potentiating action on electrically evoked contraction of the isolated guinea pig ileum;No effect.
Assay type: functional
Settings: not given

For `COc1cc(N)c(Cl)cc1C(=O)NCCNCc1ccc(CN(C)C)o1`, which EC30 is on record?
Its EC30 is “No effect”.

Species: Cavia porcellus
Experiment: In vitro gastrointestinal motility enhancing activity was determined by potentiating action on electrically evoked contraction of the isolated guinea pig ileum; no effect
Assay type: functional
Settings: not given

For `N#CC(C#N)=C1Nc2ccccc2N1CCNCc1ccc(CN2CCCCC2)o1`, which EC30 is on record?
The EC30 was “inactive”.

For `CN(C)Cc1ccc(CNCCN2CCN/C2=C\[N+](=O)[O-])o1`, which EC30 is on record?
Its EC30 is “inactive”.

With `CC1CCCC(C)N1Cc1ccc(CNCCN2CCNC2=C(C#N)C#N)o1` (stereo not given) as the molecule, how does the EC30 read?
Its EC30 is “inactive”.

For `CNC(NCCNCc1ccc(COC)o1)=C(C#N)C#N`, which EC30 is on record?
The EC30 was “inactive”.

Each molecule was assayed against Acetylcholinesterase (Homo sapiens) (UniProt P22303). Settings: Cavia porcellus; Ileum.
Sequence of Acetylcholinesterase (Homo sapiens) (P22303 whole entry): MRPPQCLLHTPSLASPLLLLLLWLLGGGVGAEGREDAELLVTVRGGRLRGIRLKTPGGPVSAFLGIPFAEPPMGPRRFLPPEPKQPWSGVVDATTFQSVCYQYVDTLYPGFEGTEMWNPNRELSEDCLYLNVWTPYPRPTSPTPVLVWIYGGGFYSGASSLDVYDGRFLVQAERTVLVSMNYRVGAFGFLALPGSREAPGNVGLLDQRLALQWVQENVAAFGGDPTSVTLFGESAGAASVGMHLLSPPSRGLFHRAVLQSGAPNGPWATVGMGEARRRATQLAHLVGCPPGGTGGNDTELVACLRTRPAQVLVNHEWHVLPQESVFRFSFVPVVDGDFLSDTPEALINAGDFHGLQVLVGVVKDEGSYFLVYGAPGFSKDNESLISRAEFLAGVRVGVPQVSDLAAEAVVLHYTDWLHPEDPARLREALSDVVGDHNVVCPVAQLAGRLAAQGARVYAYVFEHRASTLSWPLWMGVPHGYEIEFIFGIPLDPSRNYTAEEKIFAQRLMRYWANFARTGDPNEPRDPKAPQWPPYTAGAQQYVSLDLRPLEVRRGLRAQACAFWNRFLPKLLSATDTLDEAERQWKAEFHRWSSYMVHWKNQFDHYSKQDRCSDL

With `N#CC(C#N)=C1NCCN1CCNCc1ccc(CN2CC=CCC2)o1` as the molecule, how does the EC30 read?
Its EC30 is 0.081 µM.

How did the EC30 turn out when `CNC(NCCNCc1ccc(CN(C)C)o1)=C(C#N)C#N` was run?
Its EC30 is 2.1 µM.

`CC1CCCCN1Cc1ccc(CNCCN2CCNC2=C(C#N)C#N)o1` (stereo not given) was tested. Which EC30 did it give?
The EC30 was 0.91 µM.

`COC1CCN(Cc2ccc(CNCCN3CCNC3=C(C#N)C#N)o2)CC1` was tested. Which EC30 did it give?
Its EC30 is 11 µM.

Which EC30 does the source give for `CC1CCCN(Cc2ccc(CNCCN3CCNC3=C(C#N)C#N)o2)C1` (stereo not given) here?
Its EC30 is 0.41 µM.

`N#CC(C#N)=C1NCCN1CCNCc1ccc(CN2CCCCCC2)o1` was tested. Which EC30 did it give?
Its EC30 is 0.32 µM.

`C/N=c1\c(O)c(O)\c1=N/CCNCc1ccc(CN2CCCCC2)o1` was tested. Which EC30 did it give?
Its EC30 is 7.2 µM.

`COC1CCCN(Cc2ccc(CNCCN3CCNC3=C(C#N)C#N)o2)C1` (stereo not given) was tested. Which EC30 did it give?
The EC30 was 1.4 µM.

Which EC30 does the source give for `CNC(NCCNCc1ccc(CN2CCCC2)o1)=C(C#N)C#N` here?
Its EC30 is 2 µM.

`CN1CCN(Cc2ccc(CNCCN3CCNC3=C(C#N)C#N)o2)CC1` was tested. Which EC30 did it give?
Its EC30 is 1.7 µM.

For `CCN(CC)CCNC(=O)c1cc(Cl)c(N)cc1OC`, which EC30 is on record?
The EC30 was 0.43 µM.

Which EC30 does the source give for `N#CC(C#N)=C1NCCN1CCNCc1ccc(CN2CCCC(O)C2)o1` (stereo not given) here?
Its EC30 is 0.46 µM.

For `CCN(CC)Cc1ccc(CNCCN2CCNC2=C(C#N)C#N)o1`, which EC30 is on record?
Its EC30 is 1 µM.

Which EC30 does the source give for `N#CC(C#N)=C1NCCN1CCNCc1ccc(CN2CCOCC2)o1` here?
Its EC30 is 13 µM.

`CNC(NCCNCc1ccc(CN2CCCCC2)o1)=C(C#N)C#N` was tested. Which EC30 did it give?
Its EC30 is 4.1 µM.

For `N#CC(C#N)=C1NCCN1CCNCc1ccc(CN2CCC(O)CC2)o1`, which EC30 is on record?
Its EC30 is 0.43 µM.

With `CC1CCN(Cc2ccc(CNCCN3CCNC3=C(C#N)C#N)o2)CC1` as the molecule, how does the EC30 read?
Its EC30 is 0.26 µM.

For `N#CC(C#N)=C1NCCN1CCNCc1ccc(CN2CCSCC2)o1`, which EC30 is on record?
Its EC30 is 2.9 µM.

For `N#CC(C#N)=C1NCCN1CCNCc1ccc(CN2CCCC2)o1`, which EC30 is on record?
The EC30 was 0.31 µM.

`N#CC(C#N)=C1NCCN1CCNCc1ccc(CN2CCCCC2)o1` was tested. Which EC30 did it give?
Its EC30 is 0.016 µM.

For `CNC(=C[N+](=O)[O-])NCCSCc1ccc(CN(C)C)o1`, which EC30 is on record?
The EC30 was 1.8 µM.

With `CCN(C)Cc1ccc(CNCCN2CCNC2=C(C#N)C#N)o1` as the molecule, how does the EC30 read?
Its EC30 is 0.54 µM.

With `CN(C)Cc1ccc(CNCCN2CCNC2=C(C#N)C#N)o1` as the molecule, how does the EC30 read?
The EC30 was 0.37 µM.

Which EC30 does the source give for `CNC(NCCNCc1ccc(CN(C(C)C)C(C)C)o1)=C(C#N)C#N` here?
The EC30 was 8.5 µM.
